Assays:
HUVECs [1] = assay: HUVEC cell growth assay (MTT); type: cell-based, human; conditions: for IC50: Homo sapiens, HUVEC, MTT, 24 hours, in the presence of VEGF (50 ng/mL)
Method: Human umbilical vascular endothelial cells (HUVECs) were obtained from the ATCC (Rockville, Md.) and cultured in EGM-2 (Lonza, Walkersville, Md.) supplemented with 10% FBS at 37° C. under a 5% CO2 atmosphere.
Cell growth was assessed by MTT assay. HUVECs (8×10^3 cells/well) were seeded onto a 96-well plate with EGM-2 medium supplemented with 10% FBS for 24 hours. The next day, the culture medium was removed, and the cells were then incubated with serum-free medium for 12 hours. Following serum starvation, the cells were cultured in fresh 2% FBS/EBM-2 medium containing various concentrations of the test compound for 24 hours in the presence of VEGF (50 ng/mL). After the incubation, an MTT solution was added, and the plate was incubated for additional 4 hours. The formazan product was dissolved in DMSO, and the absorbance was detected at 570 nm using a VersaMax ELISA microplate reader (Molecular Devices, Sunnyvale, Calif.).
(§1) The same experiment was carried out for sunitinib as a positive control.

HUVECs [2] = assay: In vitro tube formation assay; type: cell-based, human; conditions: for IC50: Homo sapiens, HUVEC, HUVECs on Matrigel, 8 hours, VEGF-induced tube formation; for Selectivity Index (SI): ratio of the IC50 for HUVEC cell growth to the IC50 for tube formation
Method: Matrigel (70 μl/well) was coated onto a 96-well plate and polymerized for 30 minutes at 37° C. under a 5% CO2 atmosphere. HUVECs (1.5×10^4 cells/well) and various concentrations of the compound were seeded onto each well of the Matrigel-coated 96-well plate. The cells were then incubated for 8 hours at 37° C. under a 5% CO2 atmosphere. The formation of endothelial cell tubular structures was visualized under an inverted microscope and photographed (Olympus Optical Co. Ltd., Tokyo, Japan). The inhibition rate of tube formation was determined using the following equation. tube formation inhibition rate (%)=[1−(average tube numbersample−average tube numberVEGF(−))/(average tube numberVEGF(+)−average tube numberVEGF(−))]×100 [Equation 1]
The IC50 value was calculated using nonlinear regression analysis using TableCurve 2D v5.01 software (Systat Software Inc., Richmond, Calif., USA).
as §1
The endothelial cell tubular structure formation assay was performed in the same manner as in the Experimental Example 1.

[3] = tested on: human umbilical vascular endothelial cell (HUVEC); conditions: Korean Patent Application Publication No. 10-2012-0122705; cited from earlier work

CCc1ccc2nc(C(c3ccc(OC)c(OC)c3)n3cnc(CCNC4CCCC4)c3)sc2c1 (centres unmarked) [Compound I-13, N-(2-(1-((3,4-dimethoxyphenyl)(6-ethylbenzo[d]thiazol-2-yl)methyl)-1H-imidazol-4-yl)ethyl)cyclopentanamine]
IC50 (HUVECs [1]): 30.6 µM
IC50 (HUVECs [2]): 1560 nM
Selectivity Index (SI) (HUVECs [2]): 19.63

CCc1ccc2cc(C(c3ccc(O)c(O)c3)n3cc(CCN(C)C)nn3)oc2c1 (centres unmarked) [Compound I-8, 4-((4-(2-(dimethylamino)ethyl)-1H-1,2,3-triazol-1-yl)(6-ethylbenzofuran-2-yl)methyl)benzene-1,2-diol]
IC50 (HUVECs [1]): 22 µM
IC50 (HUVECs [2]): 6100 nM
Selectivity Index (SI) (HUVECs [2]): 3.61

CCN(CC)CCNC(=O)c1c(C)[nH]c(/C=C2\C(=O)Nc3ccc(F)cc32)c1C [Sunitinib, sunitinib, reference compound]
IC50 (HUVECs [1]): 9.92 µM
higher inhibitory effect on the cell growth of HUVECs (HUVECs [1]; sunitinib relative to compound (I-7)): 4.8 fold
IC50 (HUVECs [2]): 546 nM
Selectivity Index (SI) (HUVECs [2]): 18.2

CCc1ccc2nc(C(c3ccc(OC)c(OC)c3)n3cc(CN4CCCCC4)nn3)sc2c1 (centres unmarked) [Compound I-15, 2-((3,4-dimethoxyphenyl)(4-(piperidin-1-ylmethyl)-1H-1,2,3-triazol-1-yl)methyl)-6-ethylbenzo[d]thiazole]
IC50 (HUVECs [1]): > 100 µM
IC50 (HUVECs [2]): 2460 nM
Selectivity Index (SI) (HUVECs [2]): >40.65

CCc1ccc2nc(C(c3ccc(OC)c(OC)c3)n3cc(CCCN4CCCCC4)nn3)sc2c1 (centres unmarked) [Compound I-16, 2-((3,4-dimethoxyphenyl)(4-(3-(piperidin-1-yl)propyl)-1H-1,2,3-triazol-1-yl)methyl)-6-ethylbenzo[d]thiazole]
IC50 (HUVECs [1]): 30.5 µM
IC50 (HUVECs [2]): 2280 nM
Selectivity Index (SI) (HUVECs [2]): 13.38

CCCNCCc1cn(C(c2ccc(OC)c(OC)c2)c2nc3ccc(CC)cc3s2)nn1 (centres unmarked) [Compound I-3, N-(2-(1-((3,4-dimethoxyphenyl)(6-ethylbenzo[d]thiazol-2-yl)methyl)-1H-1,2,3-triazol-4-yl)ethyl)propan-1-amine]
IC50 (HUVECs [1]): 38.6 µM
IC50 (HUVECs [2]): 1390 nM
Selectivity Index (SI) (HUVECs [2]): 27.8

CCc1ccc2nc(C(c3ccc(O)c(O)c3)n3cc(CCN(C)C)nn3)oc2c1 (centres unmarked) [Compound I-9, 4-((4-(2-(dimethylamino)ethyl)-1H-1,2,3-triazol-1-yl)(6-ethylbenzo[d]oxazol-2-yl)methyl)benzene-1,2-diol]
IC50 (HUVECs [1]): > 100 µM
IC50 (HUVECs [2]): > 20000 nM

CCc1ccc2nc(C(c3ccc(OC)c(OC)c3)n3cnc(CCN(C)C)c3)sc2c1 (centres unmarked) [Compound I-10, 2-(1-((3,4-dimethoxyphenyl)(6-ethylbenzo[d]thiazol-2-yl)methyl)-1H-imidazol-4-yl)-N,N-dimethylethan-1-amine]
IC50 (HUVECs [1]): > 100 µM
IC50 (HUVECs [2]): 4870 nM

CCc1ccc2nc(C(c3ccc(OC)c(OC)c3)n3cc(CCN4CCOCC4)nn3)sc2c1 (centres unmarked) [Compound I-6, 4-(2-(1-((3,4-dimethoxyphenyl)(6-ethylbenzo[d]thiazol-2-yl)methyl)-1H-1,2,3-triazol-4-yl)ethyl)morpholine]
IC50 (HUVECs [1]): > 100 µM
IC50 (HUVECs [2]): 3930 nM

CCc1ccc2nc(C(c3ccc(OC)c(OC)c3)n3cc(CCNC4CCCC4)nn3)sc2c1 (centres unmarked) [Compound I-4, N-(2-(1-((3,4-dimethoxyphenyl)(6-ethylbenzo[d]thiazol-2-yl)methyl)-1H-1,2,3-triazol-4-yl)ethyl)cyclopentanamine]
IC50 (HUVECs [1]): 19.4 µM
IC50 (HUVECs [2]): 1020 nM
Selectivity Index (SI) (HUVECs [2]): 19.0

CCCN(CCC)CCc1cn(C(c2ccc(OC)c(OC)c2)c2nc3ccc(CC)cc3s2)cn1 (centres unmarked) [Compound I-11, N-(2-(1-((3,4-dimethoxyphenyl)(6-ethylbenzo[d]thiazol-2-yl)methyl)-1H-imidazol-4-yl)ethyl)-N-propylpropan-1-amine]
IC50 (HUVECs [1]): 38.6 µM
IC50 (HUVECs [2]): 1820 nM
Selectivity Index (SI) (HUVECs [2]): 21.18

CCc1ccc2nc(C(c3ccc(OC)c(OC)c3)n3cnc(CCN4CCCCC4)c3)sc2c1 (centres unmarked) [Compound I-12, 2-((3,4-dimethoxyphenyl)(4-(2-(piperidin-1-yl)ethyl)-1H-imidazol-1-yl)methyl)-6-ethylbenzo[d]thiazole]
IC50 (HUVECs [1]): 75.6 µM
IC50 (HUVECs [2]): 3400 nM
Selectivity Index (SI) (HUVECs [2]): 22.23

CCc1ccc2nc(C(c3ccc(O)c(O)c3)n3cc(CCN(C)C)nn3)sc2c1 (centres unmarked) [Compound I-1, 4-((4-(2-(dimethylamino)ethyl)-1H-1,2,3-triazol-1-yl)(6-ethylbenzo[d]thiazol-2-yl)methyl)benzene-1,2-diol]
IC50 (HUVECs [1]): 37.3 µM
IC50 (HUVECs [2]): 3040 nM
Selectivity Index (SI) (HUVECs [2]): 12.3

CN(C)CCc1cn(C(c2ccc(O)c(O)c2)C2Oc3ccc(C=COS(=O)(=O)[O-])cc3O2)cn1.[Na+] (centres unmarked) [wondonin, Wondonin]
inhibition of human umbilical vascular endothelial cell (HUVEC) [3]: does not inhibit

CCc1ccc2nc(C(c3ccc(OC)c(OC)c3)n3cc(CCN(C)C)nn3)sc2c1 (centres unmarked) [Compound I-2, 2-(1-((3,4-dimethoxyphenyl)(6-ethylbenzo[d]thiazol-2-yl)methyl)-1H-1,2,3-triazol-4-yl)-N,N-dimethylethan-1-amine]
IC50 (HUVECs [1]): 93.5 µM
IC50 (HUVECs [2]): 8270 nM
Selectivity Index (SI) (HUVECs [2]): 11.3

CCc1ccc2nc(C(c3ccc(OC)c(OC)c3)n3cc(CCN4CCCC4)nn3)sc2c1 (centres unmarked) [Compound I-5, 2-((3,4-dimethoxyphenyl)(4-(2-(pyrrolidin-1-yl)ethyl)-1H-1,2,3-triazol-1-yl)methyl)-6-ethylbenzo[d]thiazole]
IC50 (HUVECs [1]): 70.3 µM
IC50 (HUVECs [2]): 2840 nM
Selectivity Index (SI) (HUVECs [2]): 24.8

CCc1ccc2nc(C(c3ccc(OC)c(OC)c3)n3cnc(CCN4CCCC4)c3)sc2c1 (centres unmarked) [Compound I-14, 2-((3,4-dimethoxyphenyl)(4-(2-(pyrrolidin-1-yl)ethyl)-1H-imidazol-1-yl)methyl)-6-ethylbenzo[d]thiazole]
IC50 (HUVECs [1]): 95.7 µM
IC50 (HUVECs [2]): 1530 nM
Selectivity Index (SI) (HUVECs [2]): 62.56
